Source: the Kinase Knowledgebase extract (Sharma et al. 2016)

molecular target: CDK2 (UniProt P24941); assay: Enzyme Assay

Row | SMILES | IC50
1 | O=C(CCc1nnc[nH]1)Nc1c[nH]nc1C(=O)Nc1ccc(F)cc1 | < 20 µM
2 | CC1CCCC(C)N1CCNC(=O)c1n[nH]cc1NC(=O)c1c(F)cccc1F (stereo not given) | < 20 µM
3 | CC1(C(=O)Nc2c[nH]nc2C(=O)Nc2ccc(F)cc2)CC1 | < 20 µM
4 | O=C(Nc1c[nH]nc1C(=O)Nc1ccc(F)cc1)c1ccc(CO)cc1 | < 20 µM
5 | O=C(Nc1c[nH]nc1C(=O)Nc1ccc(F)cc1)c1cccc([N+](=O)[O-])c1 | < 20 µM
6 | Cn1cc(CC(=O)Nc2c[nH]nc2C(=O)Nc2ccc(F)cc2)c2ccccc21 | < 20 µM
7 | O=C(Nc1ccccn1)c1n[nH]cc1NC(=O)c1c(F)cccc1F | < 20 µM
8 | O=C(Nc1cccc(CN2CCOCC2)c1)c1n[nH]cc1NC(=O)c1c(F)cccc1F | < 20 µM
9 | O=C(NCc1c(Cl)cccc1Cl)c1n[nH]cc1NC(=O)c1c(F)cccc1F | < 750 µM
10 | O=C(NC1CCOCC1)c1n[nH]cc1NC(=O)c1c(F)cccc1F | < 20 µM
11 | CN1CCC(NC(=O)c2n[nH]cc2NC(=O)c2c(F)cccc2F)CC1 | < 20 µM
12 | O=C(NCC1CCOCC1)c1n[nH]cc1NC(=O)c1c(F)cccc1F | < 20 µM
13 | O=C(Nc1c[nH]nc1C(=O)Nc1ccc(F)cc1)c1ccccc1O | < 20 µM
14 | COc1ccc(CNC(=O)c2n[nH]cc2NC(=O)c2c(F)cccc2F)cc1 | < 20 µM
15 | O=C(CS(=O)(=O)c1ccccc1)Nc1c[nH]nc1C(=O)Nc1ccc(F)cc1 | < 20 µM
16 | O=C(CO)Nc1c[nH]nc1C(=O)Nc1ccc(F)cc1 | < 20 µM
17 | O=C(Nc1c[nH]nc1C(=O)Nc1ccc(F)cc1)c1ccccc1F | < 20 µM
18 | O=C(Nc1ccc(F)cc1)c1n[nH]cc1NC(=O)c1c[nH]c2ccccc12 | < 20 µM
19 | CC(CO)Nc1c[nH]nc1C(=O)Nc1ccc(F)cc1 (stereo not given) | < 20 µM
20 | O=C(NC1CCC(C(=O)O)CC1)c1n[nH]cc1NC(=O)c1c(F)cccc1F (stereo not given) | < 20 µM
21 | Cc1sccc1C(=O)Nc1c[nH]nc1C(=O)Nc1ccc(F)cc1 | < 20 µM
22 | CN1CCC(Oc2ccc(F)cc2NC(=O)c2n[nH]cc2NC(=O)c2c(F)cccc2F)CC1 | < 20 µM
23 | O=C(Nc1ccc(F)cc1)c1n[nH]cc1NC(=O)C1(O)CC1 | < 20 µM
24 | Cc1ccc(C)n1-c1c[nH]nc1C(=O)Nc1ccc(F)cc1 | < 750 µM
25 | CC(C)(C)C1CCC(NC(=O)c2n[nH]cc2NC(=O)c2c(F)cccc2F)CC1 (stereo not given) | < 20 µM

Row | SMILES | IC50
26 | O=C(Nc1c[nH]nc1C(=O)Nc1ccc(F)cc1)c1ccc2ccccc2n1 | < 20 µM
27 | O=C(NC1CCN(Cc2ccccc2)CC1)c1n[nH]cc1NC(=O)c1c(F)cccc1F | < 20 µM
28 | O=C(Nc1ccc(F)cc1)c1n[nH]cc1NC1CCCCC1 | < 20 µM
29 | CCC(CC)Nc1c[nH]nc1C(=O)Nc1ccc(F)cc1 | < 20 µM
30 | O=C(NCc1ccccc1Cl)c1n[nH]cc1NC(=O)c1c(F)cccc1F | < 20 µM
31 | CC1(C)CC(NC(=O)c2n[nH]cc2NC(=O)c2c(F)cccc2F)CC(C)(C)N1 | < 750 µM
32 | O=C(Nc1c[nH]nc1C(=O)Nc1ccc(F)cc1)c1ccccc1OCCN1CCCC1 | < 20 µM
33 | CN1CCN(c2ccc(CNC(=O)c3n[nH]cc3-c3ccccc3)cc2)CC1 | < 750 µM
34 | CN1CCN(CCC(=O)Nc2c[nH]nc2C(=O)Nc2ccc(F)cc2)CC1 | < 20 µM
35 | CN1CCN(c2c[nH]nc2C(=O)Nc2ccc(F)cc2)CC1 | < 20 µM
36 | O=C(Nc1ccc(F)cc1)c1n[nH]cc1Nc1nccnc1Cl | < 20 µM
37 | NC(=O)c1n[nH]cc1-c1ccccc1 | < 750 µM
38 | O=C(Nc1c[nH]nc1C(=O)Nc1ccc(F)cc1)c1ccccn1 | < 20 µM
39 | O=C(NCc1ccccn1)c1n[nH]cc1NC(=O)c1c(F)cccc1F | < 20 µM
40 | O=C(NCc1ccccc1)c1n[nH]cc1NC(=O)c1c(F)cccc1F | < 20 µM
41 | COc1ccc(NC(=O)c2n[nH]cc2-c2ccccc2)cn1 | < 20 µM
42 | O=C(Nc1ccccc1)c1n[nH]cc1-c1ccccc1 | < 20 µM
43 | COc1ccc(F)c(C(=O)Nc2c[nH]nc2C(=O)Nc2ccc(F)cc2)c1 | < 20 µM
44 | Nc1nnnn1CC(=O)Nc1c[nH]nc1C(=O)Nc1ccc(F)cc1 | < 20 µM
45 | Cc1ccccc1C(=O)Nc1c[nH]nc1C(=O)Nc1ccc(F)cc1 | < 20 µM
46 | O=C(Cc1c[nH]cn1)Nc1c[nH]nc1C(=O)Nc1ccc(F)cc1 | < 20 µM
47 | CC(C)(C)OC(=O)N1CCCC(CNC(=O)c2n[nH]cc2NC(=O)c2c(F)cccc2F)C1 (stereo not given) | < 20 µM
48 | O=C(CCN1CCOCC1)Nc1c[nH]nc1C(=O)Nc1ccc(F)cc1 | < 20 µM
49 | O=C(Nc1ccc(F)cc1)c1n[nH]cc1NC(=O)c1c(O)cccc1F | < 20 µM
50 | O=C(Nc1c[nH]nc1C(=O)Nc1ccc(F)cc1)c1ccccc1[N+](=O)[O-] | < 20 µM

Continued, values first:

Row | IC50 | SMILES
51 | < 20 µM | O=C(Nc1c[nH]nc1C(=O)Nc1ccc(F)cc1)c1cc[nH]c1
52 | < 20 µM | Cc1ccoc1C(=O)Nc1c[nH]nc1C(=O)Nc1ccc(F)cc1
53 | < 20 µM | O=C(Nc1ccc(F)cc1)c1n[nH]cc1N1CCOCC1
54 | < 20 µM | O=C(CCc1ccc(Cl)cc1)Nc1c[nH]nc1C(=O)Nc1ccc(F)cc1
55 | < 20 µM | O=C(Nc1cccc(CO)c1)c1n[nH]cc1NC(=O)c1c(F)cccc1F
56 | < 20 µM | O=C(Nc1c[nH]nc1C(=O)Nc1ccc(F)cc1)c1ccco1
57 | < 20 µM | CN1CCN(c2ccc(CNC(=O)c3n[nH]cc3-c3cccc(O)c3)cc2)CC1
58 | < 20 µM | COc1cccc(C(=O)Nc2c[nH]nc2C(=O)Nc2ccc(F)cc2)c1
59 | < 20 µM | O=C(Nc1ccc(F)cc1)c1n[nH]cc1Nc1cnccn1
60 | < 20 µM | O=C(Nc1c[nH]nc1C(=O)Nc1ccc(F)cc1)c1ccsc1
61 | < 20 µM | COC(=O)c1cccc(NC(=O)c2n[nH]cc2NC(=O)c2c(F)cccc2F)c1N
62 | < 20 µM | Cc1[nH]nc(C(=O)Nc2ccc(F)cc2)c1NC(=O)c1c(F)cccc1F
63 | < 20 µM | O=C(Nc1c[nH]nc1C(=O)Nc1ccc(F)cc1)c1ccc2cc[nH]c2c1
64 | < 20 µM | CC(=O)Nc1c(C(=O)Nc2ccc(F)cc2)n[nH]c1C
65 | < 20 µM | NC(=O)c1n[nH]cc1NC(=O)c1c(F)cccc1F
66 | < 20 µM | CN1CCN(c2ccc(CNC(=O)c3n[nH]cc3NC(=O)c3c(F)cccc3F)cc2)CC1
67 | < 20 µM | CN(c1c[nH]nc1C(=O)Nc1ccc(F)cc1)C1CCCCC1
68 | < 20 µM | COc1ccccc1C(=O)Nc1c[nH]nc1C(=O)Nc1ccc(F)cc1
69 | < 20 µM | CC(=O)N1CCC(C(=O)Nc2c[nH]nc2C(=O)Nc2ccc(F)cc2)CC1
70 | < 20 µM | COc1cccc(C(=O)Nc2c[nH]nc2C(=O)Nc2ccc(F)cc2)c1F
71 | < 20 µM | O=C(Nc1c[nH]nc1C(=O)Nc1ccc(F)cc1)c1cccc(F)c1
72 | < 20 µM | CC(C)Nc1c[nH]nc1C(=O)Nc1ccc(F)cc1
73 | < 20 µM | O=C(Nc1c[nH]nc1C(=O)Nc1ccc(F)cc1)c1ccc(O)nc1
74 | < 20 µM | O=C(Nc1c[nH]nc1C(=O)Nc1ccc(F)cc1)c1cnc[nH]1
75 | < 20 µM | CNS(=O)(=O)Cc1ccc(CNC(=O)c2n[nH]cc2-c2ccc(Cl)cc2Cl)cc1
76 | < 20 µM | O=C(Nc1c[nH]nc1C(=O)Nc1ccc(F)cc1)c1ccc(F)cc1

Row | IC50 | SMILES
77 | < 20 µM | O=C(NCc1ccccc1F)c1n[nH]cc1NC(=O)c1c(F)cccc1F
78 | < 20 µM | CC(C)(C)C(=O)Nc1c[nH]nc1C(=O)Nc1ccc(F)cc1
79 | < 20 µM | Cc1cccc(C(=O)Nc2c[nH]nc2C(=O)Nc2ccc(F)cc2)c1
80 | < 20 µM | O=C(NC1CCN(Cc2ccccc2)C1)c1n[nH]cc1NC(=O)c1c(F)cccc1F (stereo not given)
81 | < 20 µM | O=C(CCN1CCCCC1)Nc1c[nH]nc1C(=O)Nc1ccc(F)cc1
82 | < 20 µM | Cc1ccc(C(=O)Nc2c[nH]nc2C(=O)Nc2ccc(F)cc2)cc1
83 | < 20 µM | O=C(CCO)Nc1c[nH]nc1C(=O)Nc1ccc(F)cc1
84 | < 20 µM | COc1cccc(OC)c1C(=O)Nc1c[nH]nc1C(=O)Nc1ccc(F)cc1
85 | < 20 µM | O=C1CCC(C(=O)Nc2c[nH]nc2C(=O)Nc2ccc(F)cc2)N1 (stereo not given)
86 | < 20 µM | O=C(NCCN1CCOCC1)c1n[nH]cc1NC(=O)c1c(F)cccc1F
87 | < 750 µM | CN1CCN(c2ccc(CNC(=O)c3n[nH]cc3-c3ccc(Cl)cc3Cl)cc2)CC1
88 | < 20 µM | O=C(NCc1c(F)cccc1F)c1n[nH]cc1NC(=O)c1c(F)cccc1F
89 | < 20 µM | O=C(NCC1CCCCC1)c1n[nH]cc1NC(=O)c1c(F)cccc1F
90 | < 20 µM | Cn1cc(N)nc1C(=O)Nc1c[nH]nc1C(=O)Nc1ccc(F)cc1
91 | < 20 µM | O=C(NCC1CCCNC1)c1n[nH]cc1NC(=O)c1c(F)cccc1F (stereo not given)
92 | < 20 µM | O=C(Nc1c[nH]nc1C(=O)Nc1ccc(F)cc1)c1ccoc1
93 | < 20 µM | O=C(Nc1ccccc1)c1n[nH]cc1-c1cccc(CO)c1
94 | < 20 µM | Cc1onc(-c2ccccc2)c1C(=O)Nc1c[nH]nc1C(=O)Nc1ccc(F)cc1
95 | < 20 µM | O=C(Nc1ccc(F)cc1)c1n[nH]cc1NC(=O)C(F)(F)F
96 | < 20 µM | Cc1nc[nH]c1-c1c[nH]nc1C(=O)Nc1ccc(F)cc1
97 | < 20 µM | O=C(NC1CCCC1)c1n[nH]cc1NC(=O)c1c(F)cccc1F
98 | < 20 µM | O=C(Nc1cc(F)ccc1OCCN1CCCC1)c1n[nH]cc1NC(=O)c1c(F)cccc1F
99 | < 20 µM | O=C(Nc1c[nH]nc1C(=O)Nc1ccc(F)cc1)c1ccc([N+](=O)[O-])cc1
100 | < 20 µM | O=C(Cc1c[nH]c2ccccc12)Nc1c[nH]nc1C(=O)Nc1ccc(F)cc1
101 | < 20 µM | O=C(Nc1ccc(F)cc1)c1n[nH]cc1Nc1ccccn1

molecular target: CDK2 (UniProt P24941); assay: Enzyme Assay; remark: another data set of the same source

Row | SMILES | IC50
102 | CN1CCC(NC(=O)c2n[nH]cc2NC(=O)c2ccccc2OC(C)(C)C)CC1 | < 20 µM
103 | CN1CCN([C@H]2CC[C@H](NC(=O)c3n[nH]cc3NC(=O)c3c(F)cccc3F)CC2)CC1 | < 20 µM
104 | CN1CCC(N2CCC(NC(=O)c3n[nH]cc3NC(=O)c3c(F)cccc3F)CC2)CC1 | < 20 µM
105 | CO[C@H]1CC[C@H](NC(=O)c2n[nH]cc2NC(=O)c2c(F)cccc2F)CC1 | < 20 µM

More lines, now with the values ahead:

Row | IC50 | SMILES
106 | < 20 µM | O=C(Nc1c[nH]nc1C(=O)NC1CCNCC1)c1ccccc1OC(F)(F)F
107 | < 20 µM | O=C(NC[C@H]1CC[C@H](NC(=O)c2n[nH]cc2NC(=O)c2c(F)cccc2F)CC1)OCc1ccccc1
108 | < 20 µM | COc1ccccc1C(=O)Nc1c[nH]nc1C(=O)N[C@H]1CC[C@H](O)CC1
109 | < 20 µM | O=C(N[C@H]1CC[C@@H](N2CCOCC2)CC1)c1n[nH]cc1NC(=O)c1c(F)cccc1F
110 | < 20 µM | O=C(Nc1c[nH]nc1C(=O)NC1CCNCC1)c1ccccc1N1CCOCC1
